From patent publication US10508089B2, “Use of N-(1,3,4-Oxadiazol-2-yl)arylcarboxamides or their salts for controlling unwanted plants in areas of transgenic crop plants being tolerant to HPPD inhibitor herbicides” (BASF SE, priority 2014, dated 2019)
pIC50: −log10 of the molar value.

How the values were obtained:
PfHPPDEvo40 = PfHPPDEvo40 (Pseudomonas sp., UniProt P80064, A172V/A339E/A53E/D148E/D45N/E105D/E287Q/E300V/E334P/F143Y/G286D/G335S/H150N/H254A/H63N/I158V/I187A/I249V/K92N/L18F/N24G/N280D/S245T/S257K/S301E/T205S/V65I); assay: Brown color assay of HPPD extracts on solid media containing an HPPD inhibitor; settings: 250 uM inhibitor in solid media
Avena HPPD SEQ ID No 2 = Avena HPPD SEQ ID No 2 (Avena sativa, UniProt A0ACD5V6K6); assay: Determination of HPPD activity in presence of N-(1,3,4-Oxadiazol-2-yl)arylcarboxamides (pI50); assay type: biochemical; settings: negative log of molar concentration; inhibitor 0.1 to 100 μM; room temperature; 600 μM HPP
Procedure: (§1) HPPD activity was measured at room temperature by adding appropriate amounts of HPPD to a solution of 200 mM Tris-HCl pH 7.6, 10 mM ascorbate, 20 μM FeSO4, 650 units of catalase, 8 μg HGA dioxygenase (HGA: homogentisate) and 600 μM HPP in a total volume of 1 ml. Initial reaction rates in the absence or presence of inhibitors were determined from the increase in absorbance at 318 nm due to the formation of maleylacetoacetate (ϵ318=11,900 M−1 cm−1). pI50-values (the negative log values of the concentration of inhibitor necessary to inhibit 50% of the enzyme activity in molar concentration were determined from dose-response plots of HPPD activity versus inhibitor concentrations tested (0.1 to 100 μM) using the 4 Parameter Logistic Model or Sigmoidal Dose-Response Model of the ID Business Solutions Ltd. XLfit software suite. Due to the UV absorption of the HPPD inhibitors tested, inhibitor concentrations >100 μM could not be tested. In cases, the symbol “>” is used this means that the value was far higher than the one indicated but could not be precisely calculated within in the range of concentration of inhibitor tested.
(§2) In the 1st column of Table 8, the chemical compound employed in the assay is named (according to the numbering of the Tables 1 to 7, above). In columns 2, 3, 4, and 5 the pI50-values of the corresponding chemical compounds against various HPPD enzymes (name and SEQ ID Nos are indicated, respectively) are given.

FMP 37 SEQ ID No 9 = FMP 37 SEQ ID No 9 (Blepharisma japonicum, UniProt A8R3H6); assay: as above; assay type: biochemical; settings: negative log of molar concentration; inhibitor 0.1 to 100 μM; room temperature; 600 μM HPP
Procedure: as §1, §2

[1] = molecular target: PfHPPD Evo 40 SEQ ID No 27 (Pseudomonas sp., UniProt P80064, A172V/A339E/A53E/D148E/D45N/E105D/E287Q/E300V/E334P/F143Y/G286D/G335S/H150N/H254A/H63N/I158V/I187A/I249V/K92N/L18F/N24G/N280D/S245T/S257K/S301E/T205S/V65I); assay: biochemical; set-up: species or system Pseudomonas fluorescens
[2] = molecular target: PfHPPD Evo 41 SEQ ID No 29 (Pseudomonas sp., UniProt P80064, A172V/A339Q/A53E/D148E/D45N/E105D/E287Q/E300V/E334P/F143Y/G286D/G335W/H150N/H254A/H63N/I158V/I187A/I249V/K338A/K92N/L18F/N24G/N280D/S245T/S257K/S301E/T205S/V65I); assay: biochemical; set-up: species or system Pseudomonas fluorescens
[3] = system: tolerant transgenic soybean shoots; assay: Soybean transformation, selection of shoots with HPPD inhibitor; assay type: in vivo; settings: compared with untreated wild-type soybean shoots
Text: (§3) Soybean transformation was achieved by using methods by best mode well known in the art, such as the one described using the Agrobacterium tumefaciens mediated transformation soybean half-seed explants using essentially the method described by Paz et al. (2006), Plant cell Rep. 25:206. Transformants were identified using various HPPD inhibitors tembotrione or isoxaflutole as selection marker. The appearance of green shoots can be observed, and documented as an indicator of tolerance to the respective herbicide.

wild-type soybean shoots = assay: as above; assay type: in vivo; settings: wild-type soybean shoots treated with the same amount of the respective HPPD inhibitor
Text: as §3

Chain of Avena HPPD SEQ ID No 2 (A0ACD5V6K6 entry or part of it): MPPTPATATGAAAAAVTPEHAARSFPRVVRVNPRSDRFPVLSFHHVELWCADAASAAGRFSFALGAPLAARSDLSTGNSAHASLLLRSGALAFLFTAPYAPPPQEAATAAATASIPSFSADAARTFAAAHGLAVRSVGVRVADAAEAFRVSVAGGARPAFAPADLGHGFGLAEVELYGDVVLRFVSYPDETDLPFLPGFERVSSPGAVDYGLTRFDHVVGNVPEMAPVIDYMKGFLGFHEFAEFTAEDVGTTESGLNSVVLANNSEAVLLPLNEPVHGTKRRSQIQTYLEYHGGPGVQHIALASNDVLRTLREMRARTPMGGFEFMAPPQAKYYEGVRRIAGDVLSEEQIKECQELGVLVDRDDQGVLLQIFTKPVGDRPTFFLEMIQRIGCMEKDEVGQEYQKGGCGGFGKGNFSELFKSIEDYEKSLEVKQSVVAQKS
Chain of FMP 37 SEQ ID No 9 (A8R3H6 entry or part of it): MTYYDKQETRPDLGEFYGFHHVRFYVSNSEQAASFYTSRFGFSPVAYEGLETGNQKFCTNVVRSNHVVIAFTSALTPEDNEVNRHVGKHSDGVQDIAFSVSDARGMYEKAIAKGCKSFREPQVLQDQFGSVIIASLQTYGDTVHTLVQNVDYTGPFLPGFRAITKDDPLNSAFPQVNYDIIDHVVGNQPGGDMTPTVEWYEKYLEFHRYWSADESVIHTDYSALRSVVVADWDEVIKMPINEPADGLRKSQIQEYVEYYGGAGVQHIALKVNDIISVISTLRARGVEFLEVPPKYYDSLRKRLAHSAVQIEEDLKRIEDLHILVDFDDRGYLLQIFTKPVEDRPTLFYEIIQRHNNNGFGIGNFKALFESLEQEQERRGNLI
Chain of PfHPPD Evo 40 SEQ ID No 27 (P80064 1-354 with tags or gaps with the stated changes limits assumed): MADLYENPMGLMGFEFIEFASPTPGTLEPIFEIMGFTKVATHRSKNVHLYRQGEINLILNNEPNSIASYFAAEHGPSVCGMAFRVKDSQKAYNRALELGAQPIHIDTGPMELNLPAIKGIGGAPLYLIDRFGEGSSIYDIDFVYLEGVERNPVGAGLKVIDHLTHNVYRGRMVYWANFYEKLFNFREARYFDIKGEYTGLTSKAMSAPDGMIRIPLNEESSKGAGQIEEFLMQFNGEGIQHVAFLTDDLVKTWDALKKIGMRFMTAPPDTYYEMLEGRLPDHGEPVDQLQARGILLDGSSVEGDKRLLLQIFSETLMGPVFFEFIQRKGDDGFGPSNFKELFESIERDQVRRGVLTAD
Chain of PfHPPD Evo 41 SEQ ID No 29 (P80064 1-354 with tags or gaps with the stated changes limits assumed): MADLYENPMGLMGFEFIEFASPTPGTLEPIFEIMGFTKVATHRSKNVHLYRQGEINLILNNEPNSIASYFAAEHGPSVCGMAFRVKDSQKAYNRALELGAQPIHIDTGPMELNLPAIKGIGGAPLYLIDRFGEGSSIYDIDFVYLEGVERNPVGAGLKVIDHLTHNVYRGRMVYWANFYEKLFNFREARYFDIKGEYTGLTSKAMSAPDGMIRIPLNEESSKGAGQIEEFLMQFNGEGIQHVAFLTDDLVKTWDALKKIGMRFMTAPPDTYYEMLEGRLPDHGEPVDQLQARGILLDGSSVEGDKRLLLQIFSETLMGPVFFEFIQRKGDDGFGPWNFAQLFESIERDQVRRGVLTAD

Compound | tolerance of variant PfHPPDEvo40 compared to PfHPPD336W (brown pigment formation, titration of extract) (PfHPPDEvo40) | pIC50 (Avena HPPD SEQ ID No 2) | pIC50 (FMP 37 SEQ ID No 9) | pIC50 [1] | pIC50 [2] | appearance of shoots under HPPD inhibitor selection [3] | appearance of shoots under HPPD inhibitor selection (wild-type soybean shoots)
CS(=O)(=O)c1cc(C(F)(F)F)ccc1C(=O)C(C#N)C(=O)C1CC1 (centres unmarked) [diketonitrile] | improved tolerance | – | – | – | – | – | –
Cc1nnc(NC(=O)c2ccc(C(F)(F)F)nc2C)o1 [Compound 7-132] | – | 4.80 | 5.10 | 3.70 | 3.60 | – | –
Cc1c(C(=O)Nc2nnc(C3CC3)o2)ccc(C(F)(F)F)c1[S+](C)[O-] (centres unmarked) [Compound 6-37] | – | 4.40 | 3.80 | 3.90 | 3.80 | – | –
Cc1nnc(NC(=O)c2ccc(C(F)(F)F)c([S+](C)[O-])c2Cl)o1 (centres unmarked) [Compound 2-360] | – | 5.40 | 4.70 | 4.80 | 4.70 | – | –
Cc1nnc(NC(=O)c2ccc(C(F)(F)F)c(S(C)(=O)=O)c2Cl)o1 [Compound 2-361] | – | 5.80 | 4.90 | 5.30 | 5.10 | – | –
Cc1nnc(NC(=O)c2ccc(C(F)(F)F)c(-n3cccn3)c2Cl)o1 [Compound 2-363] | – | 5.80 | 5.00 | 5.20 | 4.90 | – | –
Cc1nnc(NC(=O)c2ccc(C(F)(F)F)c(OCCF)c2Cl)o1 [Compound 2-364] | – | 5.80 | 5.10 | 4.90 | 4.50 | – | –
CS(=O)(=O)c1cc(C(F)(F)F)ccc1C(=O)c1cnoc1C1CC1 [isoxaflutole] | – | – | – | – | – | normal greening | entirely bleached
COCc1nnc(NC(=O)c2ccc(C(F)(F)F)c(S(C)(=O)=O)c2C)o1 [Compound 5-145] | – | 5.50 | 5.00 | > 5.30 | > 5.30 | – | –
Cc1nnc(NC(=O)c2ccc(C(F)(F)F)c([S+](C)[O-])c2C)o1 (centres unmarked) [Compound 2-144] | – | 5.40 | 4.90 | 5.20 | 5.00 | – | –
CS(=O)(=O)c1ccc(C(=O)C2C(=O)CCCC2=O)c(Cl)c1COCC(F)(F)F [tembotrione] | improved tolerance | – | – | – | – | normal greening | entirely bleached
